Reference: patent publication US11992012B2, “Diaminotriazine compounds” (BASF SE, priority 2018, dated 2024)

Tests used:
Assay in all cases: greenhouse pre-emergence herbicidal test
Assay type in all cases: in vivo
Settings in all cases: 250 g/ha, scale 0 to 100
Echinocloa crus-galli = system: Echinocloa crus-galli
Excerpt: (§1) The culture containers used were plastic flowerpots containing loamy sand with approximately 3.0% of humus as the substrate. The seeds of the test plants were sown separately for each species.
(§2) For the pre-emergence treatment, the active ingredients, which had been suspended or emulsified in water, were applied directly after sowing by means of finely distributing nozzles. The containers were irrigated gently to promote germination and growth and subsequently covered with transparent plastic hoods until the plants had rooted. This cover caused uniform germination of the test plants, unless this had been impaired by the active ingredients.
(§3) Depending on the species, the plants were kept at 10-25° C. or 20-35° C., respectively.
(§4) The test period extended over 2 to 4 weeks. During this time, the plants were tended, and their response to the individual treatments was evaluated.
(§5) Evaluation was carried out using a scale from 0 to 100. 100 means no emergence of the plants, or complete destruction of at least the aerial moieties, and 0 means no damage, or normal course of growth. A moderate herbicidal activity is given at values of at least 60, a good herbicidal activity is given at values of at least 70, and a very good herbicidal activity is given at values of at least 85.

Amaranthus retroflexus = system: Amaranthus retroflexus
Excerpt: as §1, §2, §3, §4, §5

Setaria faberi = system: Setaria faberi
Excerpt: The culture containers used were plastic flowerpots containing loamy sand with approximately 3.0% of humus as the substrate. The seeds of the test plants were sown separately for each species. For the pre-emergence treatment, the active ingredients, which had been suspended or emulsified in water, were applied directly after sowing by means of finely distributing nozzles. The containers were irrigated gently to promote germination and growth and subsequently covered with transparent plastic hoods until the plants had rooted. This cover caused uniform germination of the test plants, unless this had been impaired by the active ingredients. […] The test period extended over 2 to 4 weeks. During this time, the plants were tended, and their response to the individual treatments was evaluated. Evaluation was carried out using a scale from 0 to 100. 100 means no emergence of the plants, or complete destruction of at least the aerial moieties, and 0 means no damage, or normal course of growth.

Alopercurus myosuroides = system: Alopercurus myosuroides
Excerpt: as §1, §2, §3, §4, §5

| Structure (SMILES) | herbicidal activity (Echinocloa crus-galli) [%] | herbicidal activity (Amaranthus retroflexus) [%] | herbicidal activity (Setaria faberi) [%] | herbicidal activity (Alopercurus myosuroides) [%] |
| --- | --- | --- | --- | --- |
| CC(C)(F)c1nc(N)nc(Nc2c(F)cccc2OCc2ccc(F)cc2)n1 [Example 6] | 100 | 100 | 100 |  |
| CC(Oc1cccc(F)c1Nc1nc(N)nc(C(C)(C)F)n1)c1ccccc1 (stereo not drawn) [Example 23] | 100 |  | 75 |  |
| CC(C)(C)c1nc(N)nc(Nc2c(F)cccc2OCc2ccccc2)n1 [Example 33] | 60 |  |  | 75 |
| CC(C)(F)c1nc(N)nc(Nc2c(F)cccc2OCc2nccs2)n1 [Example 36] | 75 | 100 |  |  |
| CC1(c2nc(N)nc(Nc3c(F)cccc3OCc3ccccc3)n2)CCC1 [Example 52] | 90 |  | 85 |  |
| COc1cc(F)cc(COc2cccc(F)c2Nc2nc(N)nc(C(C)(C)F)n2)c1 [Example 54] | 100 |  |  | 90 |
| CC(C)(F)c1nc(N)nc(Nc2c(F)cccc2OCc2cccc(OC(F)F)c2)n1 [Example 58] | 90 | 100 | 100 |  |
| CC(C)C(F)c1nc(N)nc(Nc2c(F)cccc2OCc2ccccc2)n1 (stereo not drawn) [Example 65] | 95 |  |  | 95 |
| CC(C)(F)c1nc(N)nc(Nc2c(F)ccc(F)c2OCc2ccccc2)n1 [Example 72] | 100 | 100 | 100 |  |
| COc1c(F)cc(COc2cccc(F)c2Nc2nc(N)nc(C(C)(C)F)n2)cc1F [Example 73] | 75 | 70 |  |  |
| CC(C)(F)c1nc(N)nc(Nc2c(F)cccc2OCc2cc(F)cc(F)c2F)n1 [Example 74] | 85 | 80 |  |  |
| CC(C)(F)c1nc(N)nc(Nc2c(OCc3cccc(F)c3)cc(F)c(F)c2F)n1 [Example 97] | 100 | 100 | 100 |  |
| CC(C)(F)c1nc(N)nc(Nc2c(F)cccc2OCc2csc(Cl)c2)n1 [Example 110] | 90 |  | 80 |  |
| COC(C)(C)c1nc(N)nc(Nc2c(F)cccc2OCc2cccc(F)c2)n1 [Example 114] | 90 |  | 90 |  |
| CC(C)(F)c1nc(N)nc(Nc2c(OC(F)(F)c3ccccc3)cc(F)c(F)c2F)n1 [Example 116] | 100 | 100 | 100 |  |
| COC(C)(C)c1nc(N)nc(Nc2c(F)cccc2OC(F)(F)c2ccccc2)n1 [Example 117] | 100 | 100 | 100 |  |
| CC(C)(F)c1nc(N)nc(Nc2c(OC(F)(F)c3cccc(F)c3)cc(F)c(F)c2F)n1 [Example 129] | 100 | 100 | 100 |  |
| CC(C)Oc1cccc(COc2cccc(F)c2Nc2nc(N)nc(C(C)(C)F)n2)c1 [Example 132] | 100 | 90 | 90 |  |
| COC(C)(C)c1nc(N)nc(Nc2c(F)ccc(F)c2OCc2ccccc2)n1 [Example 135] | 100 | 100 | 100 |  |
| CCc1ccc(COc2c(F)ccc(F)c2Nc2nc(N)nc(C(C)(C)F)n2)cc1 [Example 140] | 98 |  | 100 |  |
| CC(C)(F)c1nc(N)nc(Nc2c(F)ccc(F)c2OC(F)(F)c2ccccc2)n1 [Example 142] | 100 | 100 | 100 |  |
| CC(C)(F)c1nc(N)nc(Nc2c(F)ccc(Cl)c2OCc2ccccc2)n1 [Example 148] | 100 | 100 | 100 |  |
| CC(C)=C(F)c1nc(N)nc(Nc2c(F)cccc2OCc2ccccc2)n1 [Example 152] |  | 100 | 90 |  |
| CC(C)(F)c1nc(N)nc(Nc2c(F)cccc2OCc2cccs2)n1 [Example 154] | 100 | 100 | 100 |  |

| Structure (SMILES) | herbicidal activity (Echinocloa crus-galli) [%] | herbicidal activity (Amaranthus retroflexus) [%] | herbicidal activity (Setaria faberi) [%] | herbicidal activity (Alopercurus myosuroides) [%] |
| --- | --- | --- | --- | --- |
| CC(F)c1nc(N)nc(Nc2c(F)cccc2OCc2ccccc2)n1 (stereo not drawn) [Example 161] | 100 |  | 100 |  |
| CCCC(F)c1nc(N)nc(Nc2c(OCc3ccccc3)cc(F)c(F)c2F)n1 (stereo not drawn) [Example 169] |  | 80 | 85 |  |
| CCCC(F)c1nc(N)nc(Nc2c(F)ccc(F)c2OCc2ccccc2)n1 (stereo not drawn) [Example 170] | 100 | 90 | 90 |  |
| CC(F)c1nc(N)nc(Nc2c(F)cccc2OC(F)(F)c2ccccc2)n1 (stereo not drawn) [Example 171] | 85 | 100 | 100 |  |
| CC(C)(F)c1nc(N)nc(Nc2c(OCc3c(F)cccc3Cl)ccc(F)c2F)n1 [Example 176] | 100 | 80 | 100 |  |
| COc1ccc(COc2ccc(F)c(F)c2Nc2nc(N)nc(C(C)(C)F)n2)cc1 [Example 186] | 98 |  |  | 85 |
| COC(C)c1nc(N)nc(Nc2c(F)ccc(F)c2OCc2ccccc2)n1 (stereo not drawn) [Example 191] | 100 | 95 | 100 |  |
| COc1ccc(COc2c(F)ccc(F)c2Nc2nc(N)nc(C(C)(C)F)n2)cc1 [Example 192] | 100 |  | 100 |  |
| CC(C)c1nc(N)nc(Nc2c(F)cccc2OCc2ccccc2)n1 [Example 194] | 100 |  | 70 |  |
| CC(F)c1nc(N)nc(Nc2c(F)c(F)cc(F)c2OCc2ccccc2)n1 (stereo not drawn) [Example 209] | 100 | 100 | 100 |  |
| COc1ccccc1COc1c(F)cc(F)c(F)c1Nc1nc(N)nc(C(C)F)n1 (stereo not drawn) [Example 210] | 100 | 100 | 100 |  |
| COc1cccc(COc2c(F)cc(F)c(F)c2Nc2nc(N)nc(C(C)F)n2)c1 (stereo not drawn) [Example 211] | 100 | 100 | 100 |  |
| COc1ccc(COc2c(F)cc(F)c(F)c2Nc2nc(N)nc(C(C)F)n2)cc1 (stereo not drawn) [Example 212] | 100 | 100 | 100 |  |
| COC(C)(C)c1nc(N)nc(Nc2c(F)c(F)cc(F)c2OCc2ccccc2)n1 [Example 213] | 100 | 100 | 100 |  |
| COc1cccc(COc2c(F)cc(F)c(F)c2Nc2nc(N)nc(C(C)(C)OC)n2)c1 [Example 215] | 98 | 100 | 98 |  |
| Cc1cccc(COc2c(F)cc(F)c(F)c2Nc2nc(N)nc(C(C)F)n2)c1 (stereo not drawn) [Example 230] | 95 | 95 | 95 |  |
| CC(C)(F)c1nc(N)nc(Nc2c(F)c(Br)cc(Br)c2OCc2ccccc2)n1 [Example 235] | 90 | 85 | 100 |  |
| COC(C)c1nc(N)nc(Nc2c(F)c(F)cc(F)c2OCc2ccccc2C)n1 (stereo not drawn) [Example 237] | 100 | 95 | 95 |  |
| COC(C)c1nc(N)nc(Nc2c(F)c(F)cc(F)c2OCc2cccc(C)c2)n1 (stereo not drawn) [Example 238] | 98 | 80 | 100 |  |
| COC(C)c1nc(N)nc(Nc2c(F)c(F)cc(F)c2OCc2ccccc2F)n1 (stereo not drawn) [Example 240] | 90 | 100 | 95 |  |
| COC(C)c1nc(N)nc(Nc2c(F)c(F)cc(F)c2OCc2cccc(F)c2)n1 (stereo not drawn) [Example 241] | 85 | 100 | 85 |  |
| CCC(C)(F)c1nc(N)nc(Nc2c(F)c(F)cc(F)c2OCc2ccccc2)n1 (stereo not drawn) [Example 247] | 100 | 100 | 100 |  |
| Nc1nc(Nc2c(F)c(F)cc(F)c2OCc2ccccc2)nc(C2(F)CCCCC2)n1 [Example 256] | 100 | 100 | 100 |  |
| CC(C)(F)c1nc(N)nc(Nc2c(F)ccc(C#N)c2OCc2ccccc2)n1 [Example 259] |  | 100 | 100 |  |
